Earlier results as cited in patent US6767915B2, “Substituted piperidines as melanocortin receptor agonists” (Merck & Co., Inc., priority 2000, dated 2004).

Key:
erectile dysfunction = details: for duration of effect / onset of action: after an oral dose; for share of men/patients with adequate response: oral
[1] = test system: psychogenic erectile dysfunction
[2] = in vivo, po

| Compound | duration of effect (erectile dysfunction) | onset of action (erectile dysfunction) | share of men/patients with adequate response (erectile dysfunction) | response rate ([1]; injected intramuscularly or subcutaneously, males with psychogenic erectile dysfunction) | duration of action ([1]; subcutaneous injection) | time to onset of erection ([1]; subcutaneous injection) | absorption into the systemic circulation [2] |
| --- | --- | --- | --- | --- | --- | --- | --- |
| Cc1ccc(N(CC2=NCCN2)c2cccc(O)c2)cc1 [phentolamine] | 2 h | 5 to 30 min | 35-40% | – | – | – | – |
| CCCc1nn(C)c2c(=O)[nH]c(-c3cc(S(=O)(=O)N4CCN(C)CC4)ccc3OCC)nc12 [sildenafil] | about 4 hours | 30 to 60 min | about 70% | – | – | – | – |
| Ac-Nle-c[Asp-His-DPhe-Arg-Trp-Lys]-NH2 [MT-II] | – | – | – | 75% | approximately 2.5 hours | 10 to 20 min | not absorbed into the systemic circulation |
